Experiments:
Experiment in all cases: relative viability (nuclei count vs DMSO), 5 days (fraction); higher = more cells survive
Quizartinib + OSI-027 = compound: CC(C)(C)c1cc(NC(=O)Nc2ccc(-c3cn4c(n3)sc3cc(OCCN5CCOCC5)ccc34)cc2)no1 [Quizartinib] + COc1cccc2cc(-c3nc([C@H]4CC[C@H](C(=O)O)CC4)n4ncnc(N)c34)[nH]c12 [OSI-027] (partner 0.5 µM)
Method in brief: (§1)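 Relative viability divides the nuclei count in treated wells by that in vehicle wells. Lung cancer cell lines were seeded in 1536-well plates, dosed by pin tool the next day, and fixed and stained after 5 days in one step with final 0.05% Triton X-100, 1% formaldehyde and 1 ug/ml Hoechst. Dosing was a single drug or a fixed anchor-drug dose plus five library-drug doses (not always all listed) in √10 steps, and values are medians of duplicate plates imaged at 4×.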

Quizartinib + Crizotinib = compound: CC(C)(C)c1cc(NC(=O)Nc2ccc(-c3cn4c(n3)sc3cc(OCCN5CCOCC5)ccc34)cc2)no1 [Quizartinib] + C[C@@H](Oc1cc(-c2cnn(C3CCNCC3)c2)cnc1N)c1c(Cl)ccc(F)c1Cl [Crizotinib] (partner 1 µM)
Method in brief: as §1

Quizartinib + Decitabine = compound: CC(C)(C)c1cc(NC(=O)Nc2ccc(-c3cn4c(n3)sc3cc(OCCN5CCOCC5)ccc34)cc2)no1 [Quizartinib] + Nc1ncn([C@H]2C[C@H](O)[C@@H](CO)O2)c(=O)n1 [Decitabine] (partner 2 µM)
Method in brief: as §1

YM155 + OSI-027 = compound: COCC[n+]1c2c(n(Cc3cnccn3)c1C)C(=O)c1ccccc1C2=O [YM155] + COc1cccc2cc(-c3nc([C@H]4CC[C@H](C(=O)O)CC4)n4ncnc(N)c34)[nH]c12 [OSI-027] (partner 0.5 µM)
Method in brief: as §1

| Cell Line | relative viability (Quizartinib + OSI-027; first compound 0.001 µM) | relative viability (Quizartinib + OSI-027; first compound 0.003162 µM) | relative viability (Quizartinib + OSI-027; first compound 0.01 µM) | relative viability (Quizartinib + OSI-027; first compound 0.03162 µM) | relative viability (Quizartinib + OSI-027; first compound 0.1 µM) | relative viability (Quizartinib + Crizotinib; first compound 0.001 µM) | relative viability (Quizartinib + Crizotinib; first compound 0.003162 µM) | relative viability (Quizartinib + Crizotinib; first compound 0.01 µM) | relative viability (Quizartinib + Crizotinib; first compound 0.03162 µM) | relative viability (Quizartinib + Crizotinib; first compound 0.1 µM) | relative viability (Quizartinib + Decitabine; first compound 0.001 µM) | relative viability (Quizartinib + Decitabine; first compound 0.003162 µM) | relative viability (Quizartinib + Decitabine; first compound 0.01 µM) | relative viability (Quizartinib + Decitabine; first compound 0.03162 µM) | relative viability (Quizartinib + Decitabine; first compound 0.1 µM) | relative viability (YM155 + OSI-027; first compound 0.002 µM) | relative viability (YM155 + OSI-027; first compound 0.006325 µM) | relative viability (YM155 + OSI-027; first compound 0.02 µM) | relative viability (YM155 + OSI-027; first compound 0.06325 µM) |
| --- | --- | --- | --- | --- | --- | --- | --- | --- | --- | --- | --- | --- | --- | --- | --- | --- | --- | --- | --- |
| RERF-LC-KJ | 0.536 | 0.534 | 0.592 | 0.341 | 0.521 | 0.8 | 0.596 | 1 | 0.795 | 0.798 | 0.628 | 0.73 | 0.694 | 0.429 | 0.628 | 0.663 | 0.637 | 0.618 | 0.633 |
| SK-LU-1 | 0.316 | 0.312 | 0.377 | 0.35 | 0.37 | 0.797 | 0.785 | 1.23 | 0.781 | 0.914 | 0.592 | 0.631 | 0.756 | 0.717 | 0.66 | 0.358 | 0.316 | 0.396 | 0.348 |
| SK-MES-1 | 0.538 | 0.582 | 0.658 |  | 0.622 | 0.943 | 0.949 | 1.12 | 0.976 | 0.937 | 0.414 | 0.325 | 0.446 |  | 0.322 | 0.582 | 0.712 | 0.628 | 0.19 |
| SW 1573 | 0.423 | 0.59 | 0.573 |  | 0.666 | 0.611 | 0.837 | 0.823 | 0.803 | 0.895 | 0.513 | 0.476 | 0.67 |  | 0.625 | 0.549 | 0.705 | 0.406 | 0.0803 |
| UMC-11 |  | 0.383 | 0.46 | 0.466 | 0.467 | 0.543 | 0.562 | 0.739 | 0.66 | 0.577 |  | 0.708 | 0.638 | 0.485 | 0.691 | 0.465 | 0.499 | 0.514 | 0.465 |

From the supplement of paper PMC10307832
